Values after ≈ are worked out from the molar mass of the structure shown.
Legend:
[1] = test system: Trypanosoma cruzi; test: In vitro inhibitory affect against Trypanosoma cruzi; (32.7 mM Sb); type: functional; settings: read-out: ED50 (the source's name)
[2] = test system: Leishmania donovani; test: The compound was evaluated in vitro for its inhibitory affect against Leishmania donovani; type: functional; settings: read-out: ED50 (the source's name)
[3] = Cytotoxicity against peritoneal macrophages of female CD1 mice culturing amastigote stages of Leishmania donovani; type: functional; settings: Mus musculus
[4] = Cytotoxicity against peritoneal macrophages of female CD1 mice culturing amastigote stages of Trypanosoma cruzi; type: functional; settings: Mus musculus
[5] = test system: Trypanosoma cruzi; test: The compound was evaluated in vitro for its inhibitory affect against Trypanosoma cruzi; type: functional; settings: read-out: ED50 (the source's name)
[6] = test system: Trypanosoma brucei; test: The compound was evaluated in vitro for its inhibitory affect against Trypanosoma brucei; (7.58 mM Sb); type: functional; settings: read-out: ED50 (the source's name)
[7] = molecular target: Trypanothione reductase (Trypanosoma cruzi) (UniProt P28593); test: The compound was evaluated in vitro for its inhibitory affect against trypanothione reductase; design: concentration or dose not given beside the values; settings: concentration not given here
Chain of Trypanothione reductase (Trypanosoma cruzi) (P28593 whole entry, looked up): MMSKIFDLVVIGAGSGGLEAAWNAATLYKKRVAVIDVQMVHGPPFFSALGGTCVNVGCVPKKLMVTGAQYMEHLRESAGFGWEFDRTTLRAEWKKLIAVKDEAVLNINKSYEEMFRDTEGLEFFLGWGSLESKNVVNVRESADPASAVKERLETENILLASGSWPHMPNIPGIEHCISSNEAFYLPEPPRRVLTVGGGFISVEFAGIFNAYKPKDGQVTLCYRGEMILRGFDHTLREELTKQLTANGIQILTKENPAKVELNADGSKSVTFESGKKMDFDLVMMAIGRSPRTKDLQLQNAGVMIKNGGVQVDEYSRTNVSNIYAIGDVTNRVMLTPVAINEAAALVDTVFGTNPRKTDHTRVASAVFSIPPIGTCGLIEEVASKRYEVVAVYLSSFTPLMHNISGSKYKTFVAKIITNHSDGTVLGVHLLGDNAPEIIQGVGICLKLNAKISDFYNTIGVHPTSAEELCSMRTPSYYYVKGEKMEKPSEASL

[8] = test system: Leishmania donovani; test: The compound was evaluated in vitro for its inhibitory affect against Leishmania donovani; (0.55 mM Sb); type: functional; settings: read-out: ED50 (the source's name)
[9] = test system: Trypanosoma cruzi; test: The compound was evaluated in vitro for its inhibitory affect against Trypanosoma cruzi; (0.48 mM Sb); type: functional; settings: read-out: ED50 (the source's name)
[10] = test system: Trypanosoma brucei; test: The compound was evaluated in vitro for its inhibitory affect against Trypanosoma brucei; (0.02 mM Sb); type: functional; settings: read-out: ED50 (the source's name)
[11] = test system: Trypanosoma brucei; test: The compound was evaluated in vitro for its inhibitory affect against Trypanosoma brucei; (0.14 mM Sb); type: functional; settings: read-out: ED50 (the source's name)
[12] = test system: Trypanosoma brucei; test: The compound was evaluated in vitro for its inhibitory affect against Trypanosoma brucei; (0.098 mM Sb); type: functional; settings: read-out: ED50 (the source's name)
[13] = test system: Leishmania donovani; test: The compound was evaluated in vitro for its inhibitory affect against Leishmania donovani; (32.6 mM Sb); type: functional; settings: read-out: ED50 (the source's name)
[14] = test system: Trypanosoma brucei; test: The compound was evaluated in vitro for its inhibitory affect against Trypanosoma brucei; (8.24 mM Sb); type: functional; settings: read-out: ED50 (the source's name)
[15] = test system: Trypanosoma brucei; test: The compound was evaluated in vitro for its inhibitory affect against Trypanosoma brucei; (9.66 mM Sb); type: functional; settings: read-out: ED50 (the source's name)
[16] = test system: Trypanosoma brucei; test: The compound was evaluated in vitro for its inhibitory affect against Trypanosoma brucei; (0.03 mM Sb); type: functional; settings: read-out: ED50 (the source's name)

Structure (SMILES)	EC50 [2] [µg/mL]	EC50 [5] [µg/mL]	inhibition [7] [%]	MIC [3] [µg/mL]	MIC [4] [µg/mL]	also measured
O=C(Cn1ccnc1[N+](=O)[O-])NCc1ccccc1 [BENZNIDAZOLE]	–	–	–	–	–	EC50 [1]: 8.5 µg/mL (≈ 32.7 µM)
CN(C)CCCNCc1cccc2c1Oc1c(CNCCCN(C)C)cccc1C2(C)C	> 30	> 30	13.8	> 300	> 300	EC50 [6]: 3.32 µg/mL (≈ 7.57 µM)
CN(C)CCCNC(=O)CCc1cccc2c1Oc1c(CCC(=O)NCCCN(C)C)cccc1C2(C)C	–	> 30	58	> 300	> 300	EC50 [13]: 17 µg/mL (≈ 32.6 µM); EC50 [14]: 4.3 µg/mL (≈ 8.23 µM)
N=C(N)c1ccc(OCCCCCOc2ccc(C(=N)N)cc2)cc1 [PENTAMIDINE]	–	–	–	–	–	EC50 [16]: 0.01 µg/mL (≈ 0.0294 µM)

The next lines start with results.

EC50 [2] [µg/mL]	EC50 [5] [µg/mL]	inhibition [7] [%]	Structure (SMILES)	MIC [3] [µg/mL]	MIC [4] [µg/mL]	also measured
–	–	28.4	CN(C)CCCNC(=O)c1cc(C(C)(C)C)cc2c1Oc1c(C(=O)NCCCN(C)C)cc(C(C)(C)C)cc1C2(C)C	> 30	> 30	EC50 [8]: 0.32 µg/mL (≈ 0.553 µM); EC50 [9]: 0.28 µg/mL (≈ 0.484 µM); EC50 [10]: 0.01 µg/mL (≈ 0.0173 µM)
> 30	> 30	63	CN(C)CCCNCCCc1cccc2c1Oc1c(CCCNCCCN(C)C)cccc1C2(C)C	> 30	> 30	EC50 [11]: 0.07 µg/mL (≈ 0.141 µM)
> 30	> 30	52	CN(C)CCC/N=C(\S)NCCCc1cccc2c1Oc1c(CCCN/C(S)=N/CCCN(C)C)cccc1C2(C)C	> 30	> 30	EC50 [12]: 0.06 µg/mL (≈ 0.0979 µM)
> 30	> 30	40	CN(C)CCCNC(=O)c1cccc2c1Oc1c(C(=O)NCCCN(C)C)cccc1C2(C)C	> 300	> 300	EC50 [15]: 4.5 µg/mL (≈ 9.64 µM)
